A word on the EC50: it is the concentration giving half of the maximal effect.

Read-outs that look alike come from different tables or passages of the source.

In this assay the test system is HCV pseudoparticles (genotype 1a HCV E1 and E2 envelope, H77C isolate). Briefly: microbe, parasite or virus in culture. Type of assay: cell-based. The note with it: Hepatitis C virus, Huh-7, 48 h.
The mark [1] stands for this setting: read-out: Activity (EC50 class), HCV pseudoparticle infection of Huh7 cells, luciferase 2 days after infection, EC50 expressed as class A/B.
The mark [2] stands for this setting: HCV pseudoparticle infection of Huh7 cells, luciferase 2 days after infection, average of duplicates.

Consider `COC(=O)[C@H](CCNC(=O)C(=O)Nc1ccc(OC)cc1)NC(=O)c1ccc(Nc2nc(NC3(c4ccc(Cl)cc4)CC3)nc(OCC(F)(F)F)n2)cc1` [Compound 1232], for which, under setting [1], the EC50 fell in the range of 0.01 to 10 nM.

`COC(=O)[C@H](CCNC(=O)C(=O)Nc1ccc(C(F)(F)F)cc1)NC(=O)c1ccc(Nc2nc(NC3(c4ccc(Cl)cc4)CC3)nc(OCC(F)(F)F)n2)cc1` [Compound 1233]: the EC50 under setting [1] lay in the range of 0.01 to 10 nM.

`COC(=O)[C@H](CCNC(=O)C(=O)Nc1ccccc1OC)NC(=O)c1ccc(Nc2nc(NC3(c4ccc(Cl)cc4)CC3)nc(OCC(F)(F)F)n2)cc1` [Compound 1234]: the EC50 under setting [1] fell in the range of 0.01 to 10 nM.

In the case of `COC(=O)[C@H](CCNC(=O)C(=O)N(C)c1ccccc1)NC(=O)c1ccc(Nc2nc(NC3(c4ccc(Cl)cc4)CC3)nc(OCC(F)(F)F)n2)cc1` [Compound 1235], the half-maximal effective concentration (EC50) was 0.53 nM under setting [2] and 0.01 to 10 nM under setting [1].

As for `COC(=O)[C@H](CCNC(=O)C(=O)Nc1ccncc1)NC(=O)c1ccc(Nc2nc(NC3(c4ccc(Cl)cc4)CC3)nc(OCC(F)(F)F)n2)cc1` [Compound 1236], under setting [1], the half-maximal effective concentration (EC50) lay within 0.01 to 10 nM.

Turning to `COC(=O)[C@H](CCNC(=O)C(=O)Nc1ccccn1)NC(=O)c1ccc(Nc2nc(NC3(c4ccc(Cl)cc4)CC3)nc(OCC(F)(F)F)n2)cc1` [Compound 1237], the concentration for a half-maximal effect (EC50) is 0.77 nM under setting [2] and 0.01 to 10 nM under setting [1].

As for `COC(=O)[C@H](CCNC(=O)C(=O)Nc1cccnc1)NC(=O)c1ccc(Nc2nc(NC3(c4ccc(Cl)cc4)CC3)nc(OCC(F)(F)F)n2)cc1` [Compound 1238], the EC50 under setting [1] lay in the range of 0.01 to 10 nM.

For `COC(=O)[C@H](CCNC(=O)C(=O)Nc1ccnn1C)NC(=O)c1ccc(Nc2nc(NC3(c4ccc(Cl)cc4)CC3)nc(OCC(F)(F)F)n2)cc1` [Compound 1239], the EC50 under setting [1] is 0.01 to 10 nM.

As to `COC(=O)[C@H](CNC(=O)C(=O)Nc1cccnc1OC)NC(=O)c1ccc(Nc2nc(NC3(c4ccc(Cl)cc4)CC3)nc(OCC(F)(F)F)n2)cc1` [Compound 1240], the EC50 under setting [1] lay within 0.01 to 10 nM.

As for `COC(=O)[C@H](CNC(=O)C(=O)Nc1ccnc(OC)c1)NC(=O)c1ccc(Nc2nc(NC3(c4ccc(Cl)cc4)CC3)nc(OCC(F)(F)F)n2)cc1` [Compound 1241], the concentration for a half-maximal effect (EC50) was 0.99 nM under setting [2] and 0.01 to 10 nM under setting [1].

Consider `COC(=O)[C@H](CNC(=O)C(=O)Nc1ccc(OC)nc1)NC(=O)c1ccc(Nc2nc(NC3(c4ccc(Cl)cc4)CC3)nc(OCC(F)(F)F)n2)cc1` [Compound 1242], for which the EC50 reads like this: under setting [2], 0.32 nM; under setting [1], 0.01 to 10 nM.

For the compound `COC(=O)[C@H](CNC(=O)C(=O)Nn1cnnc1)NC(=O)c1ccc(Nc2nc(NC3(c4ccc(Cl)cc4)CC3)nc(OCC(F)(F)F)n2)cc1` [Compound 1243], the EC50 under setting [1] fell in the range of 10 to 1000 nM.

On to `COC(=O)[C@H](CNC(=O)C(=O)Nc1ccn(C)n1)NC(=O)c1ccc(Nc2nc(NC3(c4ccc(Cl)cc4)CC3)nc(OCC(F)(F)F)n2)cc1` [Compound 1244], for which the EC50 under setting [1] was in the range of 0.01 to 10 nM.

For `COC(=O)[C@H](CNC(=O)C(=O)Nc1cc[nH]n1)NC(=O)c1ccc(Nc2nc(NC3(c4ccc(Cl)cc4)CC3)nc(OCC(F)(F)F)n2)cc1` [Compound 1245], it took 1.69 nM to reach a half-maximal effect under setting [2] (EC50) and the half-maximal effective concentration (EC50) under setting [1] was in the range of 0.01 to 10 nM.

`COC(=O)[C@H](CNC(=O)C(=O)Nc1cn[nH]c1)NC(=O)c1ccc(Nc2nc(NC3(c4ccc(Cl)cc4)CC3)nc(OCC(F)(F)F)n2)cc1` [Compound 1246]: the EC50 under setting [1] lay in the range of 0.01 to 10 nM.

Consider `COC(=O)[C@H](CNC(=O)C(=O)Nc1cncn1C)NC(=O)c1ccc(Nc2nc(NC3(c4ccc(Cl)cc4)CC3)nc(OCC(F)(F)F)n2)cc1` [Compound 1247], for which the concentration giving a half-maximal response (EC50) under setting [1] lay in the range of 0.01 to 10 nM.

With `COC(=O)[C@H](CNC(=O)C(=O)Nc1cnn(C)c1)NC(=O)c1ccc(Nc2nc(NC3(c4ccc(Cl)cc4)CC3)nc(OCC(F)(F)F)n2)cc1` [Compound 1248], the EC50 under setting [1] lay within 0.01 to 10 nM.

Turning to `COC(=O)[C@H](CNC(=O)C(=O)Nc1cccc(F)c1)NC(=O)c1ccc(Nc2nc(NC3(c4ccc(Cl)cc4)CC3)nc(OCC(F)(F)F)n2)cc1` [Compound 1249], the EC50 under setting [1] was 0.01 to 10 nM.

For the compound `COC(=O)[C@H](CNC(=O)C(=O)Nc1cccc(OC)c1)NC(=O)c1ccc(Nc2nc(NC3(c4ccc(Cl)cc4)CC3)nc(OCC(F)(F)F)n2)cc1` [Compound 1250], under setting [1], the EC50 fell in the range of 0.01 to 10 nM.

In the case of `COC(=O)[C@H](CNC(=O)C(=O)Nc1cccc(C(F)(F)F)c1)NC(=O)c1ccc(Nc2nc(NC3(c4ccc(Cl)cc4)CC3)nc(OCC(F)(F)F)n2)cc1` [Compound 1251], the EC50 under setting [1] is 0.01 to 10 nM.

`COC(=O)[C@H](CNC(=O)C(=O)Nc1ccc(F)cc1)NC(=O)c1ccc(Nc2nc(NC3(c4ccc(Cl)cc4)CC3)nc(OCC(F)(F)F)n2)cc1` [Compound 1252]: the EC50 under setting [1] lay within 0.01 to 10 nM.

For `COC(=O)[C@H](CNC(=O)C(=O)Nc1ccccc1F)NC(=O)c1ccc(Nc2nc(NC3(c4ccc(Cl)cc4)CC3)nc(OCC(F)(F)F)n2)cc1` [Compound 1253], the concentration for a half-maximal effect (EC50) under setting [1] was in the range of 0.01 to 10 nM.

Regarding `COC(=O)[C@H](CNC(=O)C(=O)Nc1ccc(OC)cc1)NC(=O)c1ccc(Nc2nc(NC3(c4ccc(Cl)cc4)CC3)nc(OCC(F)(F)F)n2)cc1` [Compound 1254], the concentration for a half-maximal effect (EC50) under setting [2] was 0.37 nM and the concentration for a half-maximal effect (EC50) under setting [1] is 0.01 to 10 nM.

Turning to `COC(=O)[C@H](CNC(=O)C(=O)Nc1ccc(C(F)(F)F)cc1)NC(=O)c1ccc(Nc2nc(NC3(c4ccc(Cl)cc4)CC3)nc(OCC(F)(F)F)n2)cc1` [Compound 1255], the concentration giving a half-maximal response (EC50) is, setting by setting: under setting [2], 1.1 nM; under setting [1], 0.01 to 10 nM.

In the case of `COC(=O)[C@H](CNC(=O)C(=O)Nc1ccccc1OC)NC(=O)c1ccc(Nc2nc(NC3(c4ccc(Cl)cc4)CC3)nc(OCC(F)(F)F)n2)cc1` [Compound 1256], the 50% effective concentration (EC50) under setting [2] turned out to be 0.64 nM and the concentration for a half-maximal effect (EC50) under setting [1] fell in the range of 0.01 to 10 nM.

In the case of `COC(=O)[C@H](CNC(=O)C(=O)N(C)c1ccccc1)NC(=O)c1ccc(Nc2nc(NC3(c4ccc(Cl)cc4)CC3)nc(OCC(F)(F)F)n2)cc1` [Compound 1257], the EC50 under setting [1] was 0.01 to 10 nM.

For the compound `COC(=O)[C@H](CNC(=O)C(=O)Nc1ccncc1)NC(=O)c1ccc(Nc2nc(NC3(c4ccc(Cl)cc4)CC3)nc(OCC(F)(F)F)n2)cc1` [Compound 1258], the EC50 under setting [1] is 0.01 to 10 nM.

As to `COC(=O)[C@H](CNC(=O)C(=O)Nc1cccnc1)NC(=O)c1ccc(Nc2nc(NC3(c4ccc(Cl)cc4)CC3)nc(OCC(F)(F)F)n2)cc1` [Compound 1259], the 50% effective concentration (EC50) under setting [1] fell in the range of 0.01 to 10 nM.

As to `COC(=O)[C@H](CNC(=O)C(=O)Nc1ccnn1C)NC(=O)c1ccc(Nc2nc(NC3(c4ccc(Cl)cc4)CC3)nc(OCC(F)(F)F)n2)cc1` [Compound 1260], the EC50 under setting [1] fell in the range of 0.01 to 10 nM.

With `COc1ncccc1NC(=O)C(=O)NCC[C@H](NC(=O)c1ccc(Nc2nc(NC3(c4ccc(Cl)cc4)CC3)nc(OCC(F)(F)F)n2)cc1)C(=O)O` [Compound 1261], the EC50 under setting [1] lay in the range of 0.01 to 10 nM.

Turning to `COc1ccc(NC(=O)C(=O)NCC[C@H](NC(=O)c2ccc(Nc3nc(NC4(c5ccc(Cl)cc5)CC4)nc(OCC(F)(F)F)n3)cc2)C(=O)O)cn1` [Compound 1262], the EC50 under setting [1] lay within 0.01 to 10 nM.

Regarding `Cn1ccc(NC(=O)C(=O)NCC[C@H](NC(=O)c2ccc(Nc3nc(NC4(c5ccc(Cl)cc5)CC4)nc(OCC(F)(F)F)n3)cc2)C(=O)O)n1` [Compound 1263], under setting [1], the EC50 was in the range of 0.01 to 10 nM.

In the case of `Cn1ccnc1NC(=O)C(=O)NCC[C@H](NC(=O)c1ccc(Nc2nc(NC3(c4ccc(Cl)cc4)CC3)nc(OCC(F)(F)F)n2)cc1)C(=O)O` [Compound 1264], under setting [1], the 50% effective concentration (EC50) lay within 10 to 1000 nM.

With `O=C(NCC[C@H](NC(=O)c1ccc(Nc2nc(NC3(c4ccc(Cl)cc4)CC3)nc(OCC(F)(F)F)n2)cc1)C(=O)O)C(=O)Nc1cc[nH]n1` [Compound 1265], the EC50 under setting [1] was in the range of 0.01 to 10 nM.

Take `O=C(NCC[C@H](NC(=O)c1ccc(Nc2nc(NC3(c4ccc(Cl)cc4)CC3)nc(OCC(F)(F)F)n2)cc1)C(=O)O)C(=O)Nc1cn[nH]c1` [Compound 1266]: under setting [1], the EC50 was in the range of 0.01 to 10 nM.

Regarding `Cn1cncc1NC(=O)C(=O)NCC[C@H](NC(=O)c1ccc(Nc2nc(NC3(c4ccc(Cl)cc4)CC3)nc(OCC(F)(F)F)n2)cc1)C(=O)O` [Compound 1267], the concentration giving a half-maximal response (EC50) reads like this: under setting [2], 5.26 nM; under setting [1], 0.01 to 10 nM.

With `Cn1cc(NC(=O)C(=O)NCC[C@H](NC(=O)c2ccc(Nc3nc(NC4(c5ccc(Cl)cc5)CC4)nc(OCC(F)(F)F)n3)cc2)C(=O)O)cn1` [Compound 1268], under setting [1], the EC50 fell in the range of 0.01 to 10 nM.

As to `O=C(NCC[C@H](NC(=O)c1ccc(Nc2nc(NC3(c4ccc(Cl)cc4)CC3)nc(OCC(F)(F)F)n2)cc1)C(=O)O)C(=O)Nc1cccc(F)c1` [Compound 1269], the EC50 under setting [1] was 0.01 to 10 nM.

With `COc1cccc(NC(=O)C(=O)NCC[C@H](NC(=O)c2ccc(Nc3nc(NC4(c5ccc(Cl)cc5)CC4)nc(OCC(F)(F)F)n3)cc2)C(=O)O)c1` [Compound 1270], the concentration for a half-maximal effect (EC50) was 0.13 nM under setting [2] and 0.01 to 10 nM under setting [1].

As to `O=C(NCC[C@H](NC(=O)c1ccc(Nc2nc(NC3(c4ccc(Cl)cc4)CC3)nc(OCC(F)(F)F)n2)cc1)C(=O)O)C(=O)Nc1cccc(C(F)(F)F)c1` [Compound 1271], the EC50 under setting [1] lay within 0.01 to 10 nM.

On to `O=C(NCC[C@H](NC(=O)c1ccc(Nc2nc(NC3(c4ccc(Cl)cc4)CC3)nc(OCC(F)(F)F)n2)cc1)C(=O)O)C(=O)Nc1ccc(F)cc1` [Compound 1272], for which, under setting [1], the EC50 lay in the range of 0.01 to 10 nM.

For `O=C(NCC[C@H](NC(=O)c1ccc(Nc2nc(NC3(c4ccc(Cl)cc4)CC3)nc(OCC(F)(F)F)n2)cc1)C(=O)O)C(=O)Nc1ccccc1F` [Compound 1273], the half-maximal effective concentration (EC50) under setting [1] is 0.01 to 10 nM.

As to `COc1ccc(NC(=O)C(=O)NCC[C@H](NC(=O)c2ccc(Nc3nc(NC4(c5ccc(Cl)cc5)CC4)nc(OCC(F)(F)F)n3)cc2)C(=O)O)cc1` [Compound 1274], the concentration giving a half-maximal response (EC50) under setting [1] fell in the range of 0.01 to 10 nM.

For the compound `O=C(NCC[C@H](NC(=O)c1ccc(Nc2nc(NC3(c4ccc(Cl)cc4)CC3)nc(OCC(F)(F)F)n2)cc1)C(=O)O)C(=O)Nc1ccc(C(F)(F)F)cc1` [Compound 1275], the half-maximal effective concentration (EC50) under setting [1] lay within 0.01 to 10 nM.

With `COc1ccccc1NC(=O)C(=O)NCC[C@H](NC(=O)c1ccc(Nc2nc(NC3(c4ccc(Cl)cc4)CC3)nc(OCC(F)(F)F)n2)cc1)C(=O)O` [Compound 1276], under setting [1], the 50% effective concentration (EC50) was 0.01 to 10 nM.

On to `CN(C(=O)C(=O)NCC[C@H](NC(=O)c1ccc(Nc2nc(NC3(c4ccc(Cl)cc4)CC3)nc(OCC(F)(F)F)n2)cc1)C(=O)O)c1ccccc1` [Compound 1277], for which, under setting [1], the concentration giving a half-maximal response (EC50) is 0.01 to 10 nM.

(Values after US8916702B2 (priority 2012, dated 2014).)
